Source: patent US4257941A, “Polycyclic nitrogen-containing compounds” (BASF Aktiengesellschaft, priority 1976, dated 1981)

Columns and labels:
Triticum aestivum = assay: Growth height of young cereal plants (Example 11, Table A); assay type: in vivo
Source text: (§1) The vessels used for the experiments were plastic pots having a volume of 1,130 cm^3 (Table A) or paraffined paper cups having a volume of 170 cm^3 (Table B). The pots and cups were filled with a sandy loam. The seeds of the test plants-separated by species-were sown shallow. Preemergence treatment (soil treatment) was effected immediately after sowing and before germination of the seeds. Seeds lying on the surface came into contact with the active ingredients. Postemergence treatment (leaf treatment) took place at an average growth height of the plants (depending on the rate of growth) of from 6 to 10 cm. The substances were suspended, emulsified or dissolved in water as diluent and applied by means of fine nozzles. The vessels were kept in the greenhouse in a temperature range of 12° C. to 25° C., and were regularly sprinkler irrigated for the duration of the experiment. The observation period was 6 to 8 weeks.

Hordeum vulgare = assay: as above; assay type: in vivo; conditions: soil treatment
Source text: as §1

Arachis hypogaea = assay: Growth-regulating action, postemergence, greenhouse (Example 35, Table 1); assay type: in vivo; conditions: for growth height relative: control 100
Source text: as §1
(§2) Further experiments were carried out in the greenhouse under the condition described in Example 11. […] As the plants which were examined liked the warmth (Eupghorbia geniculate, Arachis hypogaea, Cynodon dactylon), they were kept at from 20°-30° C. Cynodon dactylon from seed was cut once and the young growth treated postemergence.

Cynodon dactylon = assay: as above; assay type: in vivo; conditions: for growth height relative: control 100
Source text: as §1, §2

soybeans = assay: Soybeans in a vegetation experiment in sandy loam (Example 19); assay type: in vivo, soybean (Gieso variety); conditions: for Growth height: 4 weeks; for response vs control in vivo at 3000 g/ha / response vs control in vivo at 6000 g/ha: control 100
Protocol: Soybean plants of the Gieso variety were grown in a neutral sandy loam. Fertilization took place at the time of sowing, with 0.5 g N as ammonium nitrate and 1.0 g P2 O5 as secondary potassium phosphate. […]
After 4 weeks, the treated plants were much shorter than the control, and looked more compact as a result of the different angle of the leaves. The prior art compound used for comparison purposes was 2,3,5-triiodobenzoic acid (T; U.S. Pat. No. 2,978,838).

grass or lawns = assay: Action on grass or lawns (Example 13); assay type: in vivo; conditions: for First cutting, dry substance / First cutting, growth height: 19 days after treatment; for First cutting, dry substance relative / First cutting, growth height relative: control 100; for Observations (color): control normal green
Source text: Lawn seed of the standard mixture Agrostis tenius (10%), Cynosurus cristatus (10%), Festuca rubra (15%), Lolium perenne (35%) and Poa praetensis (30%) was sown in a loam in large pots. The soil was fertilized with 1.5 g N as ammonium nitrate and 1 g P2 O5 as secondary potassium phosphate. After the grass had been cut twice, it was sprayed in conventional manner at a height of 4 cm with the active ingredients at various application rates. 19 days after treatment the growth height and dry substance content were determined. The treated grass was much shorter than the control, and produced a correspondingly lower amount of dry substance.
The prior art compound used for comparison purposes was maleic hydrazide (M; German 815,192).

[1] = Glycine max, 672 h, read-out: Growth height relative
[2] = Glycine max, 672 h, 3.0 kg/ha, read-out: Growth height relative
[3] = Glycine max, 672 h, 6.0 kg/ha, read-out: Growth height relative

## Clc1ccc(N2N=NC3C4CC(C5N=NC45)C32)c(Cl)c1 (stereo not shown)
Triticum aestivum; leaf treatment, 0.5 kg/ha
  Growth height: 40 cm
Triticum aestivum; leaf treatment, 1.0 kg/ha
  Growth height: 34 cm
Triticum aestivum; leaf treatment, 2.0 kg/ha
  Growth height: 35 cm
Triticum aestivum; soil treatment, 0.5 kg/ha
  Growth height: 25 cm
Triticum aestivum; soil treatment, 1.0 kg/ha
  Growth height: 25 cm
Triticum aestivum; soil treatment, 2.0 kg/ha
  Growth height: 20 cm
Hordeum vulgare; 0.5 kg/ha
  Growth height: 40 cm
Hordeum vulgare; 1.0 kg/ha
  Growth height: 38 cm
Hordeum vulgare; 2.0 kg/ha
  Growth height: 53 cm

## Clc1ccc(CN2N=NC3C4CC(C5N=NC45)C32)cc1 (stereo not shown)
Triticum aestivum; leaf treatment, 0.5 kg/ha
  Growth height: 40 cm
Triticum aestivum; leaf treatment, 1.0 kg/ha
  Growth height: 39 cm
Triticum aestivum; leaf treatment, 2.0 kg/ha
  Growth height: 40 cm
Triticum aestivum; soil treatment, 0.5 kg/ha
  Growth height: 40 cm
Triticum aestivum; soil treatment, 1.0 kg/ha
  Growth height: 40 cm
Triticum aestivum; soil treatment, 2.0 kg/ha
  Growth height: 30 cm
Hordeum vulgare; 0.5 kg/ha
  Growth height: 48 cm
Hordeum vulgare; 1.0 kg/ha
  Growth height: 44 cm
Hordeum vulgare; 2.0 kg/ha
  Growth height: 41 cm

## O=[N+]([O-])c1cccc(N2N=NC3C4CC(C5N=NC45)C32)c1 (stereo not shown)
Triticum aestivum; leaf treatment, 0.5 kg/ha
  Growth height: 28 cm
Triticum aestivum; leaf treatment, 1.0 kg/ha
  Growth height: 28 cm
Triticum aestivum; leaf treatment, 2.0 kg/ha
  Growth height: 17 cm
Triticum aestivum; soil treatment, 0.5 kg/ha
  Growth height: 26 cm
Triticum aestivum; soil treatment, 1.0 kg/ha
  Growth height: 26 cm
Triticum aestivum; soil treatment, 2.0 kg/ha
  Growth height: 13 cm
Hordeum vulgare; 0.5 kg/ha
  Growth height: 36 cm
Hordeum vulgare; 1.0 kg/ha
  Growth height: 36 cm
Hordeum vulgare; 2.0 kg/ha
  Growth height: 29 cm

## c1cc2sncc2cc1N1C2C3CC(C4N=NC34)C21 (stereo not shown)
Arachis hypogaea; 0.5 kg/ha
  Growth height: 13 cm
  growth height relative: 81
Arachis hypogaea; 1.0 kg/ha
  Growth height: 12 cm
  growth height relative: 75
Arachis hypogaea; 2.0 kg/ha
  Growth height: 9 cm
  growth height relative: 56
Cynodon dactylon; 0.5 kg/ha
  Growth height: 4 cm
  growth height relative: 36
Cynodon dactylon; 1.0 kg/ha
  Growth height: 4 cm
  growth height relative: 36
Cynodon dactylon; 2.0 kg/ha
  Growth height: 4 cm
  growth height relative: 36

## Clc1ccc(N2C3C4CC(C5N=NC45)C32)cc1Cl (stereo not shown)
Arachis hypogaea; 0.5 kg/ha
  Growth height: 14 cm
  growth height relative: 87
Arachis hypogaea; 1.0 kg/ha
  Growth height: 14 cm
  growth height relative: 87
Arachis hypogaea; 2.0 kg/ha
  Growth height: 10 cm
  growth height relative: 62
Cynodon dactylon; 0.5 kg/ha
  Growth height: 7 cm
  growth height relative: 64
Cynodon dactylon; 1.0 kg/ha
  Growth height: 6 cm
  growth height relative: 54
Cynodon dactylon; 2.0 kg/ha
  Growth height: 6 cm
  growth height relative: 54

## c1csc(N2C3C4CC(C5N=NC45)C32)n1 (stereo not shown)
Cynodon dactylon; 0.5 kg/ha
  Growth height: 8 cm
  growth height relative: 73
Cynodon dactylon; 1.0 kg/ha
  Growth height: 7 cm
  growth height relative: 64
Cynodon dactylon; 2.0 kg/ha
  Growth height: 6 cm
  growth height relative: 54

## O=C(O)c1cc(I)cc(I)c1I [T, 2,3,5-triiodobenzoic acid, reference compound]
soybeans; 0.125 kg/ha
  Growth height: 23.5 cm
soybeans; 0.375 kg/ha
  Growth height: 25.0 cm
soybeans; 0.750 kg/ha
  Growth height: 23.0 cm
soybeans; [1]
  response vs control in vivo at 125 g/ha: 102%
  response vs control in vivo at 375 g/ha: 109%
  response vs control in vivo at 750 g/ha: 100%

## Clc1ccc(N2N=NC3C4CC(C5N=NC45)C32)cc1 (stereo not shown) [drawing 378]
Grass or lawns; 0.25 kg/ha
  First cutting, dry substance: 10.7 g
  First cutting, growth height: 26.0 cm
  First cutting, dry substance relative: 85.6
  First cutting, growth height relative: 101.9
  Observations (color): normal green
Grass or lawns; 0.5 kg/ha
  First cutting, dry substance: 8.6 g
  First cutting, growth height: 24.0 cm
  First cutting, dry substance relative: 68.8
  First cutting, growth height relative: 94.1
  Observations (color): normal green
Grass or lawns; 1.0 kg/ha
  First cutting, dry substance: 7.0 g
  First cutting, growth height: 19.0 cm
  First cutting, dry substance relative: 56.0
  First cutting, growth height relative: 74.5
  Observations (color): normal green
Grass or lawns; 2.0 kg/ha
  First cutting, dry substance: 4.8 g
  First cutting, growth height: 16.0 cm
  First cutting, dry substance relative: 38.4
  First cutting, growth height relative: 62.7
  Observations (color): dark green
Grass or lawns; 4.0 kg/ha
  First cutting, dry substance: 3.1 g
  First cutting, growth height: 10.5 cm
  First cutting, dry substance relative: 24.8
  First cutting, growth height relative: 41.1
  Observations (color): dark green

## Brc1ccc(N2N=NC3C4CC(C5N=NC45)C32)cc1 (stereo not shown) [drawing 379]
Grass or lawns; 0.25 kg/ha
  First cutting, dry substance: 12.8 g
  First cutting, growth height: 25.0 cm
  First cutting, dry substance relative: 102.4
  First cutting, growth height relative: 98.0
  Observations (color): normal green
Grass or lawns; 0.5 kg/ha
  First cutting, dry substance: 11.4 g
  First cutting, growth height: 24.0 cm
  First cutting, dry substance relative: 91.2
  First cutting, growth height relative: 94.1
Grass or lawns; 1.0 kg/ha
  First cutting, dry substance: 8.4 g
  First cutting, growth height: 21.5 cm
  First cutting, dry substance relative: 67.2
  First cutting, growth height relative: 84.2
Grass or lawns; 2.0 kg/ha
  First cutting, dry substance: 6.3 g
  First cutting, growth height: 18.0 cm
  First cutting, dry substance relative: 50.4
  First cutting, growth height relative: 70.5
Grass or lawns; 2.0 kg/ha, control 1.33
  First cutting, chlorophyll content: 1.40 g Ca + b/100 g TS
Grass or lawns; 4.0 kg/ha
  First cutting, dry substance: 4.1 g
  First cutting, growth height: 12.5 cm
  First cutting, dry substance relative: 32.8
  First cutting, growth height relative: 49.0

## Clc1ccc(N2N=NC3C4CC(C5N=NC45)C32)cc1 (stereo not shown) [drawing 393]
soybeans; 3.0 kg/ha, soil
  Growth height: 15.0 cm
soybeans; 6.0 kg/ha, soil
  Growth height: 14.0 cm
soybeans; [2]
  response vs control in vivo at 3000 g/ha: 65.2%
soybeans; [3]
  response vs control in vivo at 6000 g/ha: 60.9%

## Clc1cccc(N2N=NC3C4CC(C5N=NC45)C32)c1 (stereo not shown) [drawing 394]
soybeans; 3.0 kg/ha, soil
  Growth height: 17.5 cm
soybeans; 6.0 kg/ha, soil
  Growth height: 14.5 cm
soybeans; [2]
  response vs control in vivo at 3000 g/ha: 76.1%
soybeans; [3]
  response vs control in vivo at 6000 g/ha: 63%

## Clc1ccc(N2N=NC3C4CC(C5NNC45)C32)cc1 (stereo not shown) [drawing 395]
soybeans; 3.0 kg/ha, soil
  Growth height: 13.5 cm
soybeans; 6.0 kg/ha, soil
  Growth height: 12.5 cm
soybeans; [2]
  response vs control in vivo at 3000 g/ha: 58.7%
soybeans; [3]
  response vs control in vivo at 6000 g/ha: 54.4%

## FC(F)(F)c1ccc(Cl)c(N2N=NC3C4CC(C5N=NC45)C32)c1 (stereo not shown) [drawing 396]
soybeans; 3.0 kg/ha, soil
  Growth height: 17.5 cm
soybeans; 6.0 kg/ha, soil
  Growth height: 13.5 cm
soybeans; [2]
  response vs control in vivo at 3000 g/ha: 76.1%
soybeans; [3]
  response vs control in vivo at 6000 g/ha: 58.7%

## Brc1ccc(N2N=NC3C4CC(C5N=NC45)C32)cc1 (stereo not shown) [drawing 397]
soybeans; 3.0 kg/ha, soil
  Growth height: 14.0 cm
soybeans; 6.0 kg/ha, soil
  Growth height: 14.0 cm
soybeans; [2]
  response vs control in vivo at 3000 g/ha: 60.9%
soybeans; [3]
  response vs control in vivo at 6000 g/ha: 60.9%

## Brc1ccccc1N1N=NC2C3CC(C4N=NC34)C21 (stereo not shown) [drawing 398]
soybeans; 3.0 kg/ha, soil
  Growth height: 21.0 cm
soybeans; 6.0 kg/ha, soil
  Growth height: 17.0 cm
soybeans; [2]
  response vs control in vivo at 3000 g/ha: 91.3%
soybeans; [3]
  response vs control in vivo at 6000 g/ha: 73.9%

## Brc1cccc(N2N=NC3C4CC(C5N=NC45)C32)c1 (stereo not shown) [drawing 399]
soybeans; 3.0 kg/ha, soil
  Growth height: 17.0 cm
soybeans; 6.0 kg/ha, soil
  Growth height: 16.0 cm
soybeans; [2]
  response vs control in vivo at 3000 g/ha: 73.9%
soybeans; [3]
  response vs control in vivo at 6000 g/ha: 69.6%

## FC(F)(F)c1cccc(N2C3C4CC(C5N=NC45)C32)c1 (stereo not shown) [drawing 434]
Arachis hypogaea; 0.25 kg/ha
  Growth height: 8 cm
  growth height relative: 50
Arachis hypogaea; 0.5 kg/ha
  Growth height: 8 cm
  growth height relative: 50
Arachis hypogaea; 1.0 kg/ha
  Growth height: 7.5 cm
  growth height relative: 47
Arachis hypogaea; 2.0 kg/ha
  Growth height: 5 cm
  growth height relative: 31
Cynodon dactylon; 0.5 kg/ha
  Growth height: 4 cm
  growth height relative: 36
Cynodon dactylon; 1.0 kg/ha
  Growth height: 4 cm
  growth height relative: 36
Cynodon dactylon; 2.0 kg/ha
  Growth height: 3 cm
  growth height relative: 27

## CN(C)NC(=O)CCC(=O)O [drawing 437, reference compound]
Arachis hypogaea; 0.25 kg/ha
  Growth height: 9 cm
  growth height relative: 56
Arachis hypogaea; 0.5 kg/ha
  Growth height: 8 cm
  growth height relative: 50
Arachis hypogaea; 1.0 kg/ha
  Growth height: 7 cm
  growth height relative: 44
Arachis hypogaea; 2.0 kg/ha
  Growth height: 7 cm
  growth height relative: 44
Cynodon dactylon; 0.5 kg/ha
  Growth height: 12 cm
  growth height relative: 109
Cynodon dactylon; 1.0 kg/ha
  Growth height: 12 cm
  growth height relative: 109
Cynodon dactylon; 2.0 kg/ha
  Growth height: 9 cm
  growth height relative: 82
